In US20110150917A1, “Small Cationic Antimicrobial Peptides” (THE UNIVERSITY OF BRITISH COLUMBIA, priority 2007, published 2011):
“Also recorded” adds a separate entry of the source. Where no end group is shown, it is not given here.

What was measured:
[1] = tested on: monocytic cells; details: cited from earlier work
[2] = mouse model; cited from earlier work
[3] = tested on: bacterial infections; details: mouse, in vivo; cited from earlier work
[4] = tested on: human peripheral blood mononuclear cells (PBMC); test: Chemokine induction in human PBMC (capture ELISA); format: cell-based; details: for ability to stimulate human PBMC to induce the expression of the chemokines MCP-1, Gro-α and IL8: ELISA 24 hours after peptide addition, compared to LL-37, lowest peptide concentration 5 μg/ml
Experimental: (§1) Venous blood (20 ml) from healthy volunteers was collected in Vacutainer® collection tubes containing sodium heparin as an anticoagulant (Becton Dickinson, Mississauga, ON) in accordance with UBC ethical approval and guidelines. Blood was diluted 1:1 with complete RPMI 1640 medium and separated by centrifugation over a Ficoll-Paque® Plus (Amersham Biosciences, Piscataway, N.J., USA) density gradient. White blood cells were isolated from the buffy coat, washed twice in RPMI 1640 complete medium, and the number of peripheral blood mononuclear cells (PBMC) was determined by trypan blue exclusion. PBMC (5×10^5) were seeded into 12-well tissue culture dishes (Falcon; Becton Dickinson) at 0.75 to 1×10^6 cells/ml at 37° C. in 5% CO2. The above conditions were chosen to mimic conditions for circulating blood monocytes entering tissues at the site of infection via extravasation.
(§2) Following incubation of the cells under various treatment regimens, the tissue culture supernatants were centrifuged at 1000×g for 5 min, then at 10,000×g for 2 min to obtain cell-free samples. Supernatants were aliquoted and then stored at −20° C. prior to assay for various chemokines by capture ELISA (eBioscience and BioSource International Inc., CA, USA respectively).

[5] = tested on: human PBMC; test: Chemokine responses of human PBMC to CpG oligonucleotides with co-administered lantibiotic peptides; format: cell-based; details: for synergy with known adjuvants like CpG: FIG. 3, FIG. 8
Experimental: FIG. 3A-C. Reinforcement of chemokine responses in human PBMC to the bacterial signature molecules, Cpg oligonucleotides, by co-administration of lantibiotic peptides. On the X-axis of this and subsequent Figures, N=Nisin Z, P=Pep5, G=gallidermin.
as §1, §2

[6] = tested on: macrophages; details: previously shown in applicant's laboratory; cited from earlier work
[7] = tested on: S. aureus; test: Protection of mice vs. Staphylococcus aureus challenge (peritoneal); format: in vivo
Experimental: FIG. 9. Protection of animals vs. Staphylococcus aureus challenge when administered 4 hours prior to initiating the infection. A represents the reduction in colony counts within the peritoneum of mice treated with lantibiotic peptide (or negative control 1005 or positive control 1002) and challenged with ˜10^8 S. aureus in hog gastric mucin. […] An additional peptide 1002 was included as a positive control.
Conventional peptides are known to protect against infection (Scott et al. Nature Biotech 2007). However such peptides are very expensive whereas lantibiotics are bacterial fermentation products and thus inexpensive. Thus we assessed the reduction in colony counts after 24 hours within the peritoneum of mice treated with the lantibiotic peptide nisin (or negative control 1005 or positive control 1002) and challenged these mice 4 hours later with ˜10^8 S. aureus in hog gastric mucin. […] Thus the in vitro activities of nisin in increasing MCP-1 production in PBMC is clearly related to in vivo protection in animal models.

[8] = tested on: Citrobacter rodentium; test: Citrobacter rodentium challenge in mice (live imaging, intestinal histology); format: in vivo
Experimental: FIG. 10. Live-time Non-invasive imaging following Citrobacter rodentium challenge; effect of nisin treatment. Animals were pre-treated intraperitoneally with 200 μg nisin, 4 h prior to initiating the infection. Mice were then infected via gavage with 2.5×10^8 CFU of Citrobacter rodentium (lux—luminescence labeled). Live mice were followed with a CCD camera over time to assess bacterial clearance/resolution of infection.
FIG. 11. Histology of the intestines of Citrobacter treated animals after sacrifice at day 11; effect of nisin treatment. A. Sections of (from right to left): normal uninfected, saline treated infected, and nisin-treated intestines. Letter labels are a. Inflammatory infiltrate and edema; b. elongated crypts (hyperplasia); c. sloughing of damaged epithelial cells (mucosal integrity); d. depletion of mucous in goblet cells. B. Scoring of these micrographs.

[9] = intestines, sacrifice at day 11, p<0.05, FIG. 11

LL-37: natural human host defence peptide (LLGDFFRKSKEKIGKEFKRIVQRIKDFLRNLVPRTES; Antibacterial peptide LL-37; UniProt P49913 134-170, looked up)
anti-endotoxic activity in vitro (suppression of LPS-mediated induction of TNFα) [1]: excellent anti-endotoxic activity
endotoxin mediated TNFα induction and lethality [2]: reduce endotoxin mediated TNFα induction and lethality
protection against bacterial infections [3]: able to protect against bacterial infections

Pep5: cationic lantibiotic purified from producer strain S. epidermidis 25 (TAGPAIRASVKQCQKTLKATRLFTVSCKGKNGCK; thioether (positions not given here); also: lantibiotic; UniProt P19578 27-60, looked up)
ability to stimulate human PBMC to induce the expression of the chemokines MCP-1, Gro-α and IL8 ([4]; FIG. 2A-C): ability to induce chemokines
synergy with known adjuvants like CpG [5]: show synergy

indolicidin: 13-mer peptide (ILPWKWPWWPWRR; ends and bridges not checked; UniProt P33046 131-143, looked up)
anti-endotoxic activity (suppression of LPS-stimulated TNFα by macrophages) [6]: rather modest anti-endotoxic activity

gallidermin: cationic lantibiotic purified from Staphylococcus gallinarum Tü 3928 (IASKFLCTPGCAKTGSFNSYCC; thioether (positions not given here); also: lantibiotic; UniProt P21838 31-52, looked up)
ability to stimulate human PBMC to induce the expression of the chemokines MCP-1, Gro-α and IL8 ([4]; FIG. 2A-C): quite effective; also recorded: ability to induce chemokines
synergy with known adjuvants like CpG [5]: show synergy

Nisin A: lantibiotic, a variant of Nisin Z (ITSISLCTPGCKTGALMGCNMKTATCHCSIHVSK; thioether (positions not given here); also: lantibiotic; UniProt P13068 24-57, looked up)
ability to induce MCP-1 ([4]; 24 hours, 100 μg of peptide, ELISA, FIG. 7): excellent activity

Nisin Z: cationic lantibiotic bacteriocin purified from L. lactis NIZO 22186 fermentation broth (ITSISLCTPGCKTGALMGCNMKTATCNCSIHVSK; thioether (positions not given here); also: lantibiotic; UniProt P29559 24-57, looked up)
ability to stimulate human PBMC to induce the expression of the chemokines MCP-1, Gro-α and IL8 ([4]; FIG. 2A-C): most effective; also recorded: ability to induce chemokines
dose response of chemokine induction ([4]; between 30 and 150 μg/ml, FIG. 2A-C): good dose response
synergy with known adjuvants like CpG [5]: show synergy
MCP-3 release above the additive effect of CpG alone and lantibiotic alone ([5]; p<0.05): statistically significantly (p<0.05) increased
inducing MCP-1 and IL6, compared with CpG ([5]; vs three classes of CpG): superior to any of the three classes of CpG

nisin
synergy in inducing MCP-1 over and above the individual components ([5]; adjuvant formulations, ratios 2:1, 1:1 and 1:2 nisin to CpG, FIG. 8): demonstrated synergy
colony counts within the peritoneum ([7]; after 24 hours, peptide 4 hours before ~10^8 S. aureus in hog gastric mucin, FIG. 9A): reducing average colony counts
visual observation scores (physiological consequences) ([7]; cf. control peptides 1002 and 1005, FIG. 9B): vastly improved
infection in the gut / bacterial clearance ([8]; 200 μg nisin intraperitoneally 4 h before gavage with 2.5×10^8 CFU, CCD imaging, FIG. 10): substantial decrease in infection in the gut; also recorded: superior clearance
duration of the decrease in infection / superior clearance ([8]; after injection of nisin, FIG. 10): up to 11 days
damage to epithelial integrity (histology score) [8, 9]: decrease
goblet cell depletion (histology score) [8, 9]: decrease
inflammatory exudate and edema (histology score) [8, 9]: significant (p<0.05) increase
